The subject of one assay is T. brucei. Description: Growth inhibition assay of T. brucei cell cultures (Alamar Blue, 48 h). Conditions: Trypanosoma brucei; read-out: B) T. brucei EC50. The assay is classed as cell-based.
Another assay deals with MetRS (T. brucei) (Trypanosoma brucei brucei, UniProt Q38C91). Kind of assay: MetRS (T. brucei) ATP depletion assay using Kinase-Glo. It is filed as biochemical.

Where “and” joins values, the source holds several entries; their conditions need not be identical. Equal values may be shown once.

The term EC50 denotes the concentration that produces a half-maximal response. By IC50 is commonly meant the concentration needed to halve the response being measured.

MetRS (T. brucei), sequence (Q38C91 entry or part of it): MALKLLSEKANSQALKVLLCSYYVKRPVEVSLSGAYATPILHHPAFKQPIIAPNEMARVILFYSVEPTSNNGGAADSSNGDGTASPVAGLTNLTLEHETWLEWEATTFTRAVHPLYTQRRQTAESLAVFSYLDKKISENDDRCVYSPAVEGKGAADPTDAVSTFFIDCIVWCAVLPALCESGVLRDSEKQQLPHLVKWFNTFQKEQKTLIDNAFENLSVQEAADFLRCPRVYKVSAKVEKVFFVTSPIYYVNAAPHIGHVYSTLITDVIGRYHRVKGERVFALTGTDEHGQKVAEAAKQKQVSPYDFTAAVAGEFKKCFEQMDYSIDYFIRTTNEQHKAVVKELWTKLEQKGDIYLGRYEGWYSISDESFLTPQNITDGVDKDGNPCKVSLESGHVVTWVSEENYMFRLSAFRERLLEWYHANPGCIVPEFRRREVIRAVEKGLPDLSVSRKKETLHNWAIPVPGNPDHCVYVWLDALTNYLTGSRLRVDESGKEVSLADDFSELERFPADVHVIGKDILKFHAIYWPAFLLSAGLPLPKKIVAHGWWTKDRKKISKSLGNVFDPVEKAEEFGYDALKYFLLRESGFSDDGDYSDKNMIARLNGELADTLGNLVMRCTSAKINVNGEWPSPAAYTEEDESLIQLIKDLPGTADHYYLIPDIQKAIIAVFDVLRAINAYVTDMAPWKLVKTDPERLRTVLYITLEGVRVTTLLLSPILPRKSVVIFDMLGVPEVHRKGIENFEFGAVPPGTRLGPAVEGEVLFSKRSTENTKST

For `CC(=O)N1CCC(N(C(C)=O)[C@H]2CCCN(c3nc4nc(Cl)ccc4[nH]3)C2)c2cc(Cl)cc(Cl)c21` (stereo partly shown) [Compound 1945], the EC50 in the assay with T. brucei was 13700 nM. Further, the IC50 on MetRS (T. brucei) was above 10000 nM. Take `O=C(COc1ccc(Cl)cc1Cl)NCc1nc2ccccc2[nH]1` [Compound 1671, N-(1H-1,3-benzodiazol-2-ylmethyl)-2-(2,4-dichlorophenoxy)acetamide]: the EC50 in the assay on T. brucei was above 20000 nM. On MetRS (T. brucei), this compound came in with a half-inhibitory concentration (IC50) of 1270 nM. On to `CCN(Cc1cc(Cl)cc(Cl)c1)[C@H]1CCCN(c2nc3ccc(Cl)nc3[nH]2)C1` [Compound 1955, (S)-1-(5-chloro-1H-imidazo[4,5-b]pyridin-2-yl)-N-(3,5-dichlorobenzyl)-N-ethylpiperidin-3-amine], for which the EC50 in the assay with T. brucei came out at 1740 nM. At MetRS (T. brucei), this compound had an IC50 of 286 nM. Take `Clc1cc(Cl)cc(CNCCCc2nc3ccc(Cl)cc3[nH]2)c1` [Compound 1832, [3-(6-chloro-1H-1,3-benzodiazol-2-yl)propyl][(3,5-dichlorophenyl)methyl]amine]: in the assay with T. brucei, the EC50 amounted to 2150 nM. Further, the IC50 against MetRS (T. brucei) is 243 nM. The corresponding values for `O=C(/C=C\Oc1ccc(Cl)cc1Cl)NCc1nc2ccccc2[nH]1` [Compound 1730, (Z)—N-((1H-benzo[d]imidazol-2-yl)methyl)-3-(2,4-dichlorophenoxy)acrylamide] are 723 nM and 142 nM. Turning to `Clc1cc(Cl)c(Cl)c(CN[C@H]2CCCN(c3nc4nc(Cl)c(Br)cc4[nH]3)C2)c1` [Compound 1905, (S)-1-(6-bromo-5-chloro-1H-imidazo[4,5-b]pyridin-2-yl)-N-(2,3,5-trichlorobenzyl)piperidin-3-amine], the EC50 in the assay on T. brucei is above 20000 nM. Moreover, 4310 nM corresponded to half-maximal inhibition at MetRS (T. brucei) (IC50).

For the compound `O=C(NCCc1ccc(Cl)cc1Cl)OCc1nc2ccccc2[nH]1` [Compound 1739, [2-(2,4-Dichloro-phenyl)-ethyl]-carbamic acid 1H-benzoimidazol-2-ylmethyl ester], the concentration giving a half-maximal response (EC50) in the assay on T. brucei is above 10000 nM. At MetRS (T. brucei), the 50% inhibitory concentration (IC50) was determined as 1450 nM. As to `Clc1cc(Cl)cc(CNC2CCCC(c3nc4cc(Cl)cnc4[nH]3)C2)c1` (stereo not shown) [Compound 1841, 3-(6-chloro-3H-imidazo[4,5-b]pyridin-2-yl)-N-(3,5-dichlorobenzyl) cyclohexanamine], in the assay with T. brucei, the EC50 amounted to 3690 nM. Also, the IC50 on MetRS (T. brucei) stood at 6300 nM. Consider `O=C(Cc1cc(Cl)cc(Cl)c1)NCc1nc2cnc(Cl)cc2[nH]1` [Compound 1879, N-({6-chloro-1H-imidazo[4,5-c]pyridin-2-yl}methyl)-2-(3,5-dichlorophenyl)acetamide], for which the EC50 in the assay with T. brucei was 11200 nM. In addition, the IC50 on MetRS (T. brucei) was determined as 416 nM. On to `Clc1ccc(CN2CCC[C@H](c3nc4cc(Cl)ccc4[nH]3)C2)c(Cl)c1` [Compound 1837, (S)-5-chloro-2-(1-(2,4-dichlorobenzyl)piperidin-3-yl)-1H-benzo[d]imidazole], for which the EC50 in the assay with T. brucei is 1340 nM. The IC50 against MetRS (T. brucei) was 119 nM. In the same order, the values of `CC(Cc1nc2cc(F)c(Cl)cc2[nH]1)NCc1cc(Cl)cc(Cl)c1` (stereo not shown) [Compound 1824, [1-(6-chloro-5-fluoro-1H-1,3-benzodiazol-2-yl)propan-2-yl][(3,5-dichlorophenyl)methyl]amine] are 2240 nM and 160 nM.

Take `CC[C@@H](Cc1nc2ccc(Cl)cc2[nH]1)NCc1cc(Cl)cc(Cl)c1` [Compound 1827, [(2S)-1-(6-chloro-1H-1,3-benzodiazol-2-yl)butan-2-yl][(3,5-dichlorophenyl)methyl]amine]: in the assay with T. brucei, the EC50 stood at 5020 nM. At MetRS (T. brucei), this compound gave an IC50 of 390 nM. In the case of `CC(Cc1nc2c(Cl)cc(Cl)cc2[nH]1)NCc1cc(Cl)cc(Cl)c1` (stereo not shown) [Compound 1823, [1-(4,6-dichloro-1H-1,3-benzodiazol-2-yl)propan-2-yl][(3,5-dichlorophenyl)methyl]amine], the EC50 in the assay on T. brucei is 4560 nM. At MetRS (T. brucei), this compound came in with an IC50 of 2290 nM. `O=C(CO)N(CCCNc1nc2ccc(F)nc2[nH]1)Cc1cc(Cl)cc(Cl)c1` [Compound 1973, N-(3,5-dichlorobenzyl)-N-(3-(5-fluoro-3H-imidazo[4,5-b]pyridin-2-ylamino)propyl)-2-hydroxyacetamide]: the IC50 against MetRS (T. brucei) came to 11 nM. For `COc1cc(CN2CCC[C@H](c3nc4nc(Cl)ccc4[nH]3)C2)cc(OC)c1` [Compound 1872, (S)-5-chloro-2-(1-(3,5-dimethoxybenzyl)piperidin-3-yl)-1H-imidazo[4,5-b]pyridine], the EC50 in the assay with T. brucei amounted to 8340 nM. The IC50 on MetRS (T. brucei) was above 10000 nM. As to `Clc1cc(Cl)c(OCC2CC2)c(CN[C@H]2CCCN(c3nc4nc(Cl)ccc4[nH]3)C2)c1` [Compound 1929, (S)-1-(5-chloro-1H-imidazo[4,5-b]pyridin-2-yl)-N-(3,5-dichloro-2-(cyclopropylmethoxy)benzyl)piperidin-3-amine], the EC50 with T. brucei is 511 nM. The compound also yielded an IC50 at MetRS (T. brucei) of 29 nM.

For `O=C(Cc1ccc(Cl)cc1Cl)NCc1nc2ccc(Cl)nc2[nH]1` [Compound 1876, N-({5-chloro-3H-imidazo[4,5-b]pyridin-2-yl}methyl)-2-(2,4-dichlorophenyl)acetamide], the EC50 in the assay with T. brucei is above 20000 nM. On MetRS (T. brucei), this compound displayed an IC50 of 375 nM.

With `O=C(COc1ccc(Cl)cc1Cl)NCCc1nc2ccccc2[nH]1` [Compound 1675, N-[2-(1H-1,3-benzodiazol-2-yl)ethyl]-2-(2,4-dichlorophenoxy)acetamide], the EC50 with T. brucei is above 20000 nM. This compound returned an IC50 on MetRS (T. brucei) of 8230 nM. For `COc1ccc(Oc2cccc(NCc3nc4ccccc4[nH]3)c2)c(Cl)c1` [Compound 1941, N-(1H-1,3-benzodiazol-2-ylmethyl)-3-(2-chloro-4-methoxyphenoxy)aniline], the 50% effective concentration (EC50) in the assay on T. brucei amounted to 3130 nM. Further, the IC50 against MetRS (T. brucei) was 273 nM. Take `O=C(Cc1nc2ccc(Cl)cc2[nH]1)NCc1cc(Cl)cc(Cl)c1` [Compound 1804, N-(3,5-dichlorobenzyl)-2-(6-chloro-1H-benzo[d]imidazol-2-yl)acetamide]: the EC50 in the assay on T. brucei was determined as 15000 nM. This compound also came in with an IC50 against MetRS (T. brucei) of 389 nM. Take `CC(=O)N(Cc1cc(Cl)cc(Cl)c1)C1CCCC(c2nc3cc(Cl)cnc3[nH]2)C1` (stereo not shown) [Compound 1842, N-(3-(6-chloro-3H-imidazo[4,5-b]pyridin-2-yl)cyclohexyl)-N-(3,5-dichlorobenzyl)acetamide]: in the assay on T. brucei, the EC50 came out at 8580 nM. Moreover, on MetRS (T. brucei), the IC50 was above 10000 nM. The corresponding values for `CC(Cc1nc2cc3ccccc3cc2[nH]1)NCc1cc(Cl)cc(Cl)c1` (stereo not shown) [Compound 1826, [(3,5-dichlorophenyl)methyl](1-{1H-naphtho[2,3-d]imidazol-2-yl}propan-2-yl)amine] are 7940 nM and 454 nM. Turning to `CC(Cc1nc2ccc(Br)cc2[nH]1)NCc1cc(Cl)cc(Cl)c1` (stereo not shown) [Compound 1821, [1-(6-bromo-1H-1,3-benzodiazol-2-yl)propan-2-yl][(3,5-dichlorophenyl)methyl]amine], the EC50 with T. brucei came to 1670 nM. Moreover, the IC50 at MetRS (T. brucei) came out at 54 nM. The corresponding values for `O=C(NCc1nc2nc(Cl)ccc2[nH]1)Nc1ccc(Cl)cc1Cl` [Compound 1891, 3-({5-chloro-3H-imidazo[4,5-b]pyridin-2-yl}methyl)-1-(2,4-dichlorophenyl)urea] are above 20000 nM and 3900 nM.

For `O=C(Cc1cc2cc(Cl)cc(Cl)c2o1)NCc1nc2ccccc2[nH]1` [Compound 1756, N-((1H-benzo[d]imidazol-2-yl)methyl)-2-(5,7-dichlorobenzofuran-2-yl)acetamide], the EC50 in the assay with T. brucei was above 10000 nM. Moreover, at MetRS (T. brucei), the midpoint of inhibition, the IC50, lay at 3720 nM. On to `COC(=O)N(CCCNc1nc2ccc(F)nc2n1C(=O)OC)Cc1cc(Cl)cc(Cl)c1` [Compound 1965, methyl 3,5-dichlorobenzyl3-(3-(methoxycarbonyl)-5-fluoro-3H-imidazo[4,5-b]pyridin-2-ylamino)propylcarbamate], for which the EC50 in the assay on T. brucei came to 96.2 nM. Besides, the half-maximal inhibitory concentration (IC50) against MetRS (T. brucei) is 345 nM and 322 nM. In the case of `COc1ccc(Oc2cccc(NCc3nc4ccccc4[nH]3)n2)c(Cl)c1` [Compound 1924, N-((1H-benzo[d]imidazol-2-yl)methyl)-6-(2-chloro-4-methoxyphenoxy)pyridin-2-amine], the EC50 with T. brucei came to 3280 nM. Further, the IC50 at MetRS (T. brucei) was found to be 165 nM.

In the case of `O=C(CC(=O)Nc1ccc(Cl)cc1Cl)NCc1nc2ccccc2[nH]1` [Compound 1803, N1-((1H-benzo[d]imidazol-2-yl)methyl)-N3-(2,4-dichlorophenyl)malonamide], the EC50 with T. brucei was above 20000 nM. The IC50 against MetRS (T. brucei) is above 10000 nM.

On to `O=C(Cc1cc(Cl)cc(Cl)c1)NCc1nc2ncc(Cl)cc2[nH]1` [Compound 1877, N-({6-chloro-1H-imidazo[4,5-b]pyridin-2-yl}methyl)-2-(3,5-dichlorophenyl)acetamide], for which the EC50 in the assay on T. brucei turned out to be 8680 nM. Also, on MetRS (T. brucei), 191 nM corresponded to half-maximal inhibition (IC50).

`Clc1cc(Cl)cc(CNC2CCCC(c3nc4ncccc4[nH]3)C2)c1` (stereo not shown) [Compound 1817, N-(3,5-dichlorobenzyl)-3-(1H-imidazo[4,5-b]pyridin-2-yl) cyclohexanamine]: the EC50 in the assay with T. brucei is 2060 nM. Moreover, the IC50 on MetRS (T. brucei) is above 10000 nM. As for `Clc1cc(Cl)c2ccn(CCCNc3nc4ccc(Cl)nc4[nH]3)c2c1` [Compound 1996, 5-chloro-N-[3-(4,6-dichloro-1H-indol-1-yl)propyl]-3H-imidazo[4,5-b]pyridin-2-amine], the EC50 with T. brucei turned out to be 5300 nM. On the same count and under the same terms, the value for `O=C(Nc1cc(Cl)cc(Cl)c1)[C@H]1CCCN(c2nc3nc(Cl)ccc3[nH]2)C1` [Compound 1888, (S)-1-(5-chloro-1H-imidazo[4,5-b]pyridin-2-yl)-N-(3,5-dichlorophenyl)piperidine-3-carboxamide] was above 20000 nM. The same measure, in the same setting: the same measure for `O=C(N[C@H]1CCCN(c2nc3nc(Cl)ccc3[nH]2)C1)c1cc(Cl)cc(Cl)c1` [Compound 1889]: above 20000 nM. In turn, `NC(=O)N(CCCNc1nc2ccc(F)nc2[nH]1)Cc1cc(Cl)cc(Cl)c1` [Compound 1974, 1-(3,5-dichlorobenzyl)-1-(3-(5-fluoro-3H-imidazo[4,5-b]pyridin-2-ylamino)propyl)urea] registered an IC50 against MetRS (T. brucei) of 7 nM. For the compound `Clc1cc(Cl)cc(CCN2CCCC(c3nc4nc(Cl)ccc4[nH]3)C2)c1` (stereo not shown) [Compound 1812, 5-chloro-2-(1-(3,5-dichlorophenethyl)piperidin-3-yl)-1H-imidazo[4,5-b]pyridine], the EC50 in the assay on T. brucei was found to be 3760 nM.

Values taken from US10913736B2 (UNIVERSITY OF WASHINGTON, priority 2014, dated 2021).
